For assay [1], the system named is D2 -receptors. The assay can be described thus: peripheral D2-agonist selectivity (general statement, no test named). The conditions noted are these: main locus of action at presynaptic dopaminergic receptors or sympathetic nerve terminals.
Assay [2] has as its target T1, D2 (Oryctolagus cuniculus, UniProt G1T1Q0).
T1 construct: perfused rabbit ear artery test; from tissue; host or cells: perfused rabbit ear artery (sympathetic nerve terminals)
The assay can be described thus: perfused rabbit ear artery test for D2-agonist activity.

Each structure is given as a SMILES string. Where two headings read alike, the source gives them in different places.

T1 sequence (G1T1Q0 1-443): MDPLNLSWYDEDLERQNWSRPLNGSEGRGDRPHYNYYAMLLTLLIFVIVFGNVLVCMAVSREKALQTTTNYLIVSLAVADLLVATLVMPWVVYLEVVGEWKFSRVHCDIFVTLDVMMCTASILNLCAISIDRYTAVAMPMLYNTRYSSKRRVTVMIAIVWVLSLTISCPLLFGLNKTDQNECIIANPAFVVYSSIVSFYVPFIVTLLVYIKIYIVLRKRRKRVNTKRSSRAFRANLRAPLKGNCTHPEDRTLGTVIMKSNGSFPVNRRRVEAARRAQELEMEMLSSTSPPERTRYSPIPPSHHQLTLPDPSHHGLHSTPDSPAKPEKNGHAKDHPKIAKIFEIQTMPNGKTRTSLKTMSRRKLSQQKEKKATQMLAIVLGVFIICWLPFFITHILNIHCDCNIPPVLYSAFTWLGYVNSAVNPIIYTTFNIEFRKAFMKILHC

For orientation: EC50 means the midpoint of the concentration-response curve. As for `Br.CCCN(CCC)CCc1ccc(O)c2c1C(=O)C(=O)N2` [4-[2-(di-n-propylamino)ethyl]-7-hydroxyisatin hydrobromide], the “selective peripheral D2-agonist” value in assay [1] is on record as “selective peripheral D2 -agonists”. The molecule also gave an EC50 in assay [2] of 2 to 7 nM.
`CCCN(CCC)CCc1ccc(O)c(O)c1` [N,N-di-n-propyldopamine, reference compound]: the concentration for a half-maximal effect (EC50) in assay [2] (perfused rabbit ear artery test, D2-agonist activity, read-out: EC50) was 50 to 60 nM.

The values above are taken from patent publication US4593106A, “4-[2-(dialkylamino)ethyl]-7-hydroxyisatins” (SmithKline Beckman Corporation, priority 1984, dated 1986).
